Test results from patent US5384417A, “Heptitols” (priority 1994, dated 1995).

Tests used:
Format in all cases: biochemical
α-mannosidases = experiment: inhibition of human liver α-mannosidases (multiple forms taken together); conditions: for inhibition of α-mannosidases (in words): 1 mM
Experimental: (§1) Human liver glycosidases were assayed in the absence and presence [1 mM] of each of the potential inhibitors, using the appropriate buffered 4-methylumbelliferyl glycosides as substrates, as previously described.^17 See Table I, below.

β-Hexosaminidase = experiment: inhibition of human liver β-hexosaminidase; conditions: for inhibition of β-hexosaminidase (in words): 1 mM; for % Inhibition of Glycosidase Activity, β-Hexosaminidase: 1 mM inhibitor
Experimental: as §1

Neutral α-Mannosidase = target: T1, Neutral α-Mannosidase (Homo sapiens, UniProt Q9NTJ4); experiment: inhibition of human liver neutral α-mannosidase; conditions: for inhibition at 1000 µM: 1 mM inhibitor, read-out: % Inhibition of Glycosidase Activity, α-Mannosidase Neutral
T1 construct: Human liver glycosidases were assayed; from tissue; host or cells: human liver
T1 sequence (Q9NTJ4 1-1040): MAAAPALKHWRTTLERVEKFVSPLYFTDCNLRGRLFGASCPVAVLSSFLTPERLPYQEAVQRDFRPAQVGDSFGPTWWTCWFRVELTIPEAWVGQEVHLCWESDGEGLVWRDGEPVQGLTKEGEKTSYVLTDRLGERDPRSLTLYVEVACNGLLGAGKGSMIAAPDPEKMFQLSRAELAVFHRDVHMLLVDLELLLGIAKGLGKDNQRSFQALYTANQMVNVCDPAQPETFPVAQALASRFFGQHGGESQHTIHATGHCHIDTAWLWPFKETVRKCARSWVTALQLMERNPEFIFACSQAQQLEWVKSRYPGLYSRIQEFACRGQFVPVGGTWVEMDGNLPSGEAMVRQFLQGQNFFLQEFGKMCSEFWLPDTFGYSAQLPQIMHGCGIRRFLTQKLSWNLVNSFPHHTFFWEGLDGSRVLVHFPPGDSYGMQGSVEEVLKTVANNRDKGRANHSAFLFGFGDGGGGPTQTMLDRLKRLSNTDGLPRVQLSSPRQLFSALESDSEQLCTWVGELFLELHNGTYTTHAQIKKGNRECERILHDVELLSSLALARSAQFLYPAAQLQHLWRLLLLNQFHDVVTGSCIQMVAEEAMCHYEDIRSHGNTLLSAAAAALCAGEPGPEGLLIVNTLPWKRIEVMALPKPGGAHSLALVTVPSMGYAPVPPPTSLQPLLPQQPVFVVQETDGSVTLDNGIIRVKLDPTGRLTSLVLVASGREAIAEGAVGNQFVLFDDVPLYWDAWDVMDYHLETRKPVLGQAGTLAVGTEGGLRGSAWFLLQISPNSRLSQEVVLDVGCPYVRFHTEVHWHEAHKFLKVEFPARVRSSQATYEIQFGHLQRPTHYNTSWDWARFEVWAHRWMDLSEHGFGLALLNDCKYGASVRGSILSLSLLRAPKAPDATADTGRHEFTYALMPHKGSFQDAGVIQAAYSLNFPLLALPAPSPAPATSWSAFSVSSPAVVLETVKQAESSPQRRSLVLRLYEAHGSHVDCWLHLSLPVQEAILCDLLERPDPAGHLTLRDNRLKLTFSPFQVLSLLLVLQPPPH
Experimental: as §1

β-Xylosidase = target: T2, β-Xylosidase (Homo sapiens, UniProt Q9H227); experiment: inhibition of human liver β-xylosidase; conditions: 1 mM inhibitor; read-out: % Inhibition of Glycosidase Activity, β-Xylosidase
T2 construct: Human liver glycosidases were assayed; from tissue; host or cells: human liver
T2 sequence (Q9H227 1-469): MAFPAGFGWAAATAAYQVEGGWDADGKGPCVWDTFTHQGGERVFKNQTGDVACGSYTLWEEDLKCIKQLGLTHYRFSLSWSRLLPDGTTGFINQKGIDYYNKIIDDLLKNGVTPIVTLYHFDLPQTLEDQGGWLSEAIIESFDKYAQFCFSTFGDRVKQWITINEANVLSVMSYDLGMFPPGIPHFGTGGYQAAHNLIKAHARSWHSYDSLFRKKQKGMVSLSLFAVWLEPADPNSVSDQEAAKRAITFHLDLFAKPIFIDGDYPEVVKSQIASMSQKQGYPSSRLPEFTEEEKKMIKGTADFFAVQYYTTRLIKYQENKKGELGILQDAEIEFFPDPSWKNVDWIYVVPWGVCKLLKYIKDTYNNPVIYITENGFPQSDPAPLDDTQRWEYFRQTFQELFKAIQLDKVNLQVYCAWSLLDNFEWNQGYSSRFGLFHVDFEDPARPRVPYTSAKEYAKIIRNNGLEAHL
Experimental: as §1

α-Fucosidase = target: T3, α-Fucosidase (Homo sapiens, UniProt P04066); experiment: inhibition of human liver α-fucosidase; conditions: for inhibition of α-fucosidase (in words): 1 mM; for inhibition at 1000 µM: 1 mM inhibitor, read-out: % Inhibition of Glycosidase Activity, α-Fucosidase
T3 construct: Human liver glycosidases were assayed; from tissue; host or cells: human liver
T3 sequence (P04066 32-466): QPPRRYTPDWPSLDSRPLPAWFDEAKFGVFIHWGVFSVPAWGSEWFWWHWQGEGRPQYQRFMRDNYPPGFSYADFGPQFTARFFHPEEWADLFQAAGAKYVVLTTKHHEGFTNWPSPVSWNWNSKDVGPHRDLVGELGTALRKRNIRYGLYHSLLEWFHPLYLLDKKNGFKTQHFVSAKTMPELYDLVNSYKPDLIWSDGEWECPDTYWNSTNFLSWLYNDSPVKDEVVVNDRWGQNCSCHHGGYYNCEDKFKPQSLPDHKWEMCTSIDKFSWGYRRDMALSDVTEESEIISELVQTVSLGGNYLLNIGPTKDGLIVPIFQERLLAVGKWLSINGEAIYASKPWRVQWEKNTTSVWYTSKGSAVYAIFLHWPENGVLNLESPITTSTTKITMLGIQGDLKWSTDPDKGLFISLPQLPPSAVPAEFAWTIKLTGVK
Experimental: as §1

[1] = listed as α-(aminomethyl)-1-deoxy-mannofuranose (5)

SMILES | inhibition of α-mannosidases (in words) (α-mannosidases) | selectivity for α-mannosidases (in words) (α-mannosidases; compared with parent compound DMJ (1)) | inhibition of β-hexosaminidase (in words) (β-Hexosaminidase) | % Inhibition of Glycosidase Activity, β-Hexosaminidase (β-Hexosaminidase) | inhibition at 1000 µM (Neutral α-Mannosidase) | inhibition at 1000 µM (β-Xylosidase) | inhibition of α-fucosidase (in words) (α-Fucosidase) | inhibition at 1000 µM (α-Fucosidase) | inhibitory activity against α-mannosidase relative to DMJ (α-mannosidases; compared with DMJ (1)) | inhibition of neutral α-mannosidase (in words) (Neutral α-Mannosidase; compared with DIM (3)) | inhibition of α-mannosidases (in words) (α-mannosidases; [1]) | inhibition of α-fucosidase (in words) (α-Fucosidase; [1])
OC[C@H]1N[C@H](CO)[C@@H](O)C(O)[C@@H]1O (stereo partly shown) [αHomoDMJ (2)] | does not affect appreciably the inhibition of the multiple forms of α-mannosidase | much more selective inhibitor of α-mannosidases than is the parent compound DMJ (1) | abolish the moderate inhibition of β-hexosaminidase | 1% | 33% | 0% | decrease markedly the potent inhibition of α-fucosidase | 29% | – | – | – | –
OC[C@@H](O)[C@H]1N[C@H](CO)[C@@H](O)[C@H]1O [αHomoDIM (4), 2,5-dideoxy-2,5-imino-D-glycero-D-talo-heptitol] | still retaining significant inhibitory properties towards α-mannosidases | – | – | 0% | 76% | 21% | much less potent | 27% | about twice as effective as DMJ | decreases the inhibition of the lysosomal and neutral enzymes | – | –
NC[C@H]1O[C@H]([C@H](O)CO)[C@H](O)[C@@H]1O [Manhepamine (5), 1-amino-2,5-anhydro-1-deoxy-D-glycero-D-talo-heptitol] | did not inhibit any of the α-mannosidases | – | weak inhibitory properties towards β-N-acetylhexosaminidase | 46% | 2% | 6% | moderate inhibition of α-fucosidase | 77% | – | – | relatively inactive against α-mannosidases | moderate inhibitor of α-fucosidase
OC[C@H]1NC[C@@H](O)[C@@H](O)[C@@H]1O [DMJ (1), deoxymannojirimycin] | – | – | moderate inhibition of β-hexosaminidase | 55% | 30% | 3% | potent inhibition of α-fucosidase | – | – | – | – | –
OC[C@@H](O)[C@H]1NC[C@@H](O)[C@H]1O [DIM (3)] | much more potent inhibitor than the piperidine analogues (1) and (2) of all the mannosidases investigated | – | – | 28% | 89% | 45% | – | – | – | – | – | –
